This note sets out measurements from US20260055097A9, “NRF2 PROTEIN DEGRADERS” (Ganymede Oncology, Inc., priority 2022, published 2026).

What all share (assay type): cell-based
Experiment [1] has as its target T1, Nrf2 (Homo sapiens, UniProt Q16236).
T1 sequence (Q16236 1-605): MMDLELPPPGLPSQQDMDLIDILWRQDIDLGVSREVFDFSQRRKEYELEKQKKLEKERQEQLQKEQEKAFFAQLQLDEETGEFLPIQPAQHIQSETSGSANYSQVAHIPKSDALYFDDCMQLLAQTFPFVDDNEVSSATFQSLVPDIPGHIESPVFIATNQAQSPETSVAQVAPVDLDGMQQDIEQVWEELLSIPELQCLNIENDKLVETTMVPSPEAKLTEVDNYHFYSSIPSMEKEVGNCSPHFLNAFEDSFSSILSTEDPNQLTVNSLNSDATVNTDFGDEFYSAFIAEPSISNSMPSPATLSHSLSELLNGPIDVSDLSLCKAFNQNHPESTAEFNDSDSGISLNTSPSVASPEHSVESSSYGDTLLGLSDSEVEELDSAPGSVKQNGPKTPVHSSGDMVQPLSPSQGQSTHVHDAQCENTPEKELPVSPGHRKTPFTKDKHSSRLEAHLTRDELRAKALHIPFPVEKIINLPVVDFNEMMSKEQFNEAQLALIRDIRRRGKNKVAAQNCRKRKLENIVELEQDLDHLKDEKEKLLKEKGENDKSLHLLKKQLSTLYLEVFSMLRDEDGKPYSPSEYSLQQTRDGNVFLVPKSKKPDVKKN
Nature of the experiment: Protein degradation assay in huH1 cells by Western blot. More on the design: tested for protein degradation in huH1 cells; host or cells: huH1 (Huh1) human hepatoma cells. Here is the method:
Representative Compounds of the Disclosure were tested for protein degradation in huH1 cells (Vendor: JCRB: Cat #JCRB0199; Description: Human hepatoma) by Western blot analysis according to the following general protocol.
Day 0: Plated the Huh1 cells into 10-cm dishes (1.5×10^6/dish)
Day 1: Treated the cells with compounds at five concentrations, e.g., 0.01 μM, 0.04 μM, 0.11 μM, 0.33 μM and 1 μM; or 0.4 μM, 1.1 μM, 3.3 μM, 10 μM, and 30 μM.
Day 4: Harvested the cell pellets, spilt 1/3 of the pellet to extract RNA by Nucleospin RNA plus kit and measure Nrf2 and GPX2 by RT-PCR, the remaining 2/3 of the pellet to run Western blot analysis.
• a) Cell samples were lysed with lysis buffer (1×Cell lysis buffer added Protease inhibitor and phosphatase inhibitor) on ice for 5˜10 min and spun at 15,000 rpm in an Eppendorf microfuge for 15 min at 4° C. • b) The protein supernatant was collected in a new 1.5 ml tube and the protein concentrations were determined by the Pierce BCA kit (Thermo #23225). • c) Mixed protein sample with 5×SDS-PAGE loading buffer. • d) Boiled for 5 min. • e) Cooled at RT or on ice for 5 min. • f) Flash spun to bring down condensation prior to loading gel.
• a) After flash spinning the samples, 20 μg protein were loaded into the wells. • b) Using SDS-PAGE running buffer. • c) Run with Constant Voltage (70 V) for 1.5-2 hr. Membrane transfer • a) Assembled “sandwich” for Invitrogen iBlot. • b) Transferred for 9 min using P0 program. • c) Immersed membrane in Odyssey blocking buffer or 5% BSA for at least 1 hr.
• a) Incubated with 1st Antibody 1:500 diluted in blocking buffer overnight at 4° C. • b) Washed 4×15 min with 0.05-0.1% Tween 20 in TBS. • c) Incubated with secondary antibody 1:10K diluted in blocking buffer for at least 1 hr at RT. • d) Washed 3×15 min with 0.05-0.1% Tween 20 in TBS. • e) Detected with ODYSSEY (Li—COR) The results are provided in Table 5.
(In general: In western blotting, separated proteins are transferred to a membrane and probed.)

The test system of experiment [2] is A549. Nature of the experiment: Cancer cell viability, A549 (CellTiter-Glo). Conditions: Homo sapiens, 72 h, A549 cells, 3 days, read-out: Cellular IC50 (μM) A549. The procedure, abridged: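 A549 and/or LK-2 lung carcinoma cells seeded overnight (20 K/mL A549; 35 K/mL LK-2), then exposed to compound for 3 days. Viability read as CellTiter-Glo luminescence after 15 min lysis; data fitted to curves.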
Background: Cellular ATP, detected with luciferase, serves as a proxy for viable cell number.

Experiment [3] relates to LK-2. Nature of the experiment: Cancer cell viability, LK-2 (CellTiter-Glo). To be noted: Homo sapiens, LK-2, 72 h, LK-2 cells, 3 days, read-out: Cellular IC50 (μM) LK-2. Summed up: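 A549 and LK-2 cells were seeded overnight at 20 K/mL and 35 K/mL respectively. They were then exposed for 3 days to nine three-fold dilutions, typically from 30 µM final. Viability was read as CellTiter-Glo luminescence after a 15 min lysis.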

For experiment [4], the target named is T1, Nrf2. Kind of experiment: Nrf2 degradation in A549 HiBiT-Nrf2 cells, Nano-Glo HiBiT lytic detection (HiBiT readout). More on the design: host or cells: A549 HiBiT-Nrf2 cells (engineered line bought from Promega). The procedure, abridged:
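A549 HiBiT-Nrf2 cells seeded at 5,000 cells/well in Ham's F-12 with 10% FBS, then treated next day for 6 h and 20 h at 37 °C, 5% CO2. Nrf2 degradation read by Nano-Glo HiBiT lytic luminescence after 30 min at room temperature; staurosporine served as control.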

Setting [5] is: X marks the class 0.1-1 μM, read-out: DC50 huHI1 cells 0.1-1 μM.
Setting [6] is: X marks the class >10 μM, read-out: DC50 huHI1 cells >10 μM.

By DC50 is commonly meant the concentration at which degradation of the target reaches its halfway point. Usually IC50 stands for the concentration needed to halve the response being measured.

Regarding `Cc1ccccc1C(=O)N1CCc2cc(-c3nc(NC(=O)Cc4cccc(OCCOCCNc5cccc6c5C(=O)N(C5CCC(=O)NC5=O)C6=O)c4)sc3C)ccc21` (centres unmarked) [Cpd. No. 1, 2-(3-(2-(2-((2-(2,6-dioxopiperidin-3-yl)-1,3-dioxoisoindolin-4-yl)amino)ethoxy)ethoxy)phenyl)-N-(5-methyl-4-(1-(2-methylbenzoyl)indolin-5-yl)thiazol-2-yl)acetamide], the DC50 in experiment [1] (setting [5]) was in the range of 100 to 1000 nM. For the same molecule, the results for the IC50 in experiment [2] and in experiment [3] were 0.1 µM and 0.04 µM, respectively.

With `Cc1ccccc1C(=O)N1CCc2cc(-c3nc(NC(=O)Cc4cccc(OCCOCCOCCNc5cccc6c5C(=O)N(C5CCC(=O)NC5=O)C6=O)c4)sc3C)ccc21` (centres unmarked) [Cpd. No. 2, 2-(3-(2-(2-(2-((2-(2,6-dioxopiperidin-3-yl)-1,3-dioxoisoindolin-4-yl)amino)ethoxy)ethoxy)ethoxy)phenyl)-N-(5-methyl-4-(1-(2-methylbenzoyl)indolin-5-yl)thiazol-2-yl)acetamide], in experiment [1] (setting [6]), the DC50 is > 10000 nM. The IC50 in experiment [2] is > 30 µM.

For the molecule `Cc1ccccc1C(=O)N1CCc2cc(-c3nc(NC(=O)Cc4cccc(OCCOCCOCCOCCOCCOCCNc5cccc6c5C(=O)N(C5CCC(=O)NC5=O)C6=O)c4)sc3C)ccc21` (centres unmarked) [Cpd. No. 5, 2-(3-((17-((2-(2,6-dioxopiperidin-3-yl)-1,3-dioxoisoindolin-4-yl)amino)-3,6,9,12,15-pentaoxaheptadecyl)oxy)phenyl)-N-(5-methyl-4-(1-(2-methylbenzoyl)indolin-5-yl)thiazol-2-yl)acetamide], the half-maximal degradation concentration (DC50) in experiment [1] (setting [6]) was > 10000 nM.

With `Cc1ccccc1C(=O)N1CCc2cc(-c3nc(NC(=O)Cc4cccc(OCCOCCOCCOc5cccc6c5C(=O)N(C5CCC(=O)NC5=O)C6=O)c4)sc3C)ccc21` (centres unmarked) [Cpd. No. 7, 2-(3-(2-(2-(2-((2-(2,6-dioxopiperidin-3-yl)-1,3-dioxoisoindolin-4-yl)oxy)ethoxy)ethoxy)ethoxy)phenyl)-N-(5-methyl-4-(1-(2-methylbenzoyl)indolin-5-yl)thiazol-2-yl)acetamide], in experiment [1] (X marks the class <100 nM, read-out: DC50 huHI1 cells <100 nM), the DC50 is < 100 nM.

Turning to `Cc1ccccc1C(=O)N1CCc2cc(-c3nc(NC(=O)Cc4cccc(OCCOCCOCCOCCOc5cccc6c5C(=O)N(C5CCC(=O)NC5=O)C6=O)c4)sc3C)ccc21` (centres unmarked) [Cpd. No. 8, 2-(3-(2-(2-(2-(2-((2-(2,6-dioxopiperidin-3-yl)-1,3-dioxoisoindolin-4-yl)oxy)ethoxy)ethoxy)ethoxy)ethoxy)phenyl)-N-(5-methyl-4-(1-(2-methylbenzoyl)indolin-5-yl)thiazol-2-yl)acetamide], in experiment [1] (setting [6]), the half-maximal degradation concentration (DC50) is > 10000 nM.

In the case of `Cc1ccccc1C(=O)N1CCc2cc(-c3nc(NC(=O)Cc4cccc(OCCOCCOc5cccc6c5C(=O)N(C5CCC(=O)NC5=O)C6=O)c4)sc3C)ccc21` (centres unmarked) [Cpd. No. 12, 2-(3-(2-(2-((2-(2,6-dioxopiperidin-3-yl)-1,3-dioxoisoindolin-4-yl)oxy)ethoxy)ethoxy)phenyl)-N-(5-methyl-4-(1-(2-methylbenzoyl)indolin-5-yl)thiazol-2-yl)acetamide], the DC50 in experiment [1] (setting [5]) was 100 to 1000 nM; in experiment [4] (6 h, read-out: DC50 (nM) at 6 h), > 3000 nM; in experiment [4] (20 h, read-out: DC50 (nM) at 20 h), > 3000 nM. In addition, the IC50 was ~30 µM in experiment [2] and 0.3 µM in experiment [3].

With `Cc1ccccc1C(=O)N1CCc2cc(-c3nc(NC(=O)Cc4cccc(OCCOCCOCCOCCOc5ccc6c(c5)C(=O)N(C5CCC(=O)NC5=O)C6=O)c4)sc3C)ccc21` (centres unmarked) [Cpd. No. 13, 2-(3-(2-(2-(2-(2-((2-(2,6-dioxopiperidin-3-yl)-1,3-dioxoisoindolin-5-yl)oxy)ethoxy)ethoxy)ethoxy)ethoxy)phenyl)-N-(5-methyl-4-(1-(2-methylbenzoyl)indolin-5-yl)thiazol-2-yl)acetamide], the DC50 in experiment [1] (setting [5]) lay in the range of 100 to 1000 nM.
